Test results as given in patent US20110237676A1, “SPERMICIDAL AND MICROBICIDAL COMPOSITIONS” (LEHIGH UNIVERSITY, priority 2007, published 2011).

Key:
Escherichia coli = experiment: Effects on microbes: growth inhibition of E. coli; format: cell-based
Description: (§1) Fluorous surfactants also disrupt the membranes of pathogenic microbes, and they therefore have microbicidal activities. Preferably, they are toxic to pathogenic microorganisms, yet compatible with the flora normally found in human mucosal (e.g., vaginal) tissues. The effects of various fluorous surfactants on some laboratory models of pathogenic microorganisms (Escherichia coli, Saccharomyces cerevisiae, and Candida albicans) were studied.

[1] = system: sperm cells (whole semen); experiment: Sperm motility of treated whole semen scored by differential interference microscopy (DIC); format: cell-based, human
Procedure: (§2) The general experimental protocol was as follows: Whole semen, obtained from human subjects after informed consent, was treated with various concentrations of fluorous surfactants. Samples were incubated for 5-10 min at 37° C. and 5% CO2. Semen samples were diluted in an isotonic buffered human sperm medium containing glucose. Sperm motility was scored as “% motility” using differential interference microscopy (“DIC”). Cell necropsy was determined by propidium iodide (“PI”) staining, which is known to stain the DNA of dead cells, and “% death” was scored using epifluorescence microscopy (stained and unstained sperm cells were counted to obtain a live/dead ratio). Acrosome integrity was determined with epifluorescence microscopy and fluorescein-conjugated Pisum sativum agglutinin (“FITC-PSA”) staining, the staining patterns of which are known to indicate the status of the acrosomal membrane.
(§3) To validate the general experimental protocol, the motility of whole semen treated with N-9 for 5 min was determined using DIC microscopy and PI staining Results are presented in Table 1.

[2] = system: acrosome of human spermatozoa; experiment: Acrosome integrity by FITC-PSA staining, epifluorescence microscopy; format: cell-based; conditions: average; for Type I: bright acrosome; for Type III: equatorial segment; for Type II: medium acrosome; for Type IV: no labeling
Procedure: as §2
Staining with fluorescein isothiocyanate Pisium sativum agglutinin (“FITC-PSA”) is known to stain components of the acrosome, and the staining pattern differs depending on the condition of the acrosomal membrane. This technique may be used to identify whether the acrosome is intact. Various patterns of fluorescence are seen after labeling of air-dried human spermatozoa with FITC lectins, including a bright acrosome (Type I), a medium acrosome (Type II), an equatorial segment (Type III), and no labeling (Type IV). See, e.g., Mortimer et al., “Specific Labelling by Peanut Agglutinin of The Outer Acrosomal Membrane of The Human Spermatozoon,” J. Reprod. Fert. 81, 127-35 (1987). Averages of FTIC-PSA results are presented in Table 6, which includes percentages of acrosomes compromised and types of sperm visualized in the control and treated samples.

[3] = system: sperm cells (whole semen); experiment: Sperm cell necropsy by propidium iodide (PI) staining, epifluorescence microscopy; format: cell-based, human
Procedure: as §2, §3

Candida albicans = experiment: Effects on microbes: growth inhibition of Candida albicans; format: cell-based; conditions: for inhibition of growth of Candida: 400 mM
Description: as §1

HeLa cells = experiment: Effects on HeLa (cervix) cells, morphology by microscopy; format: cell-based, human; conditions: 1.76 mM, 30 min
Description: The effects of nonoxynol-9 and various fluorous surfactants on HeLa cells, which are a laboratory model for human cervical cells, were studied. […] Accordingly, it is believed that use of a spermicidal fluorous surfactant will be less irritating to human vaginal tissue.

OCCOCCOCCOCC(F)(F)C(F)(F)F [F5-TEG, F5-triethylene glycol]
inhibition to growth of E. coli relative to non-fluorous homologs (Escherichia coli): greater inhibition
inhibition of E. coli relative to F7-TEG (Escherichia coli; comparable doses): less inhibition
% Motility ([1]; 4%, 5 min): 0%
% Motility ([1]; 5%, 5 min): 0%
% Motility ([1]; 6%, 5 min): 0%
% Motility ([1]; 7%, 5 min): 0%
% Motility ([1]; 8%, 5 min): 0%
% Motility ([1]; 9%, 5 min): 0%
% Motility ([1]; 10%, 5 min): 0%
% Motility ([1]; 10%, 10 min): 0%
% Motility ([1]; 12%, 5 min): 0%
% Motility ([1]; 15%, 5 min): 0%
% Motility ([1]; 15%, 10 min): 0%
Acrosome Compromised ([2]; 5%): 95%
Acrosome Not Compromised ([2]; 5%): 5%
Type I ([2]; 5%): 5%
Type III ([2]; 5%): 3%
Type II ([2]; 5%): 28%
Type IV ([2]; 5%): 64%
Acrosome Compromised ([2]; 6%): 98%
Acrosome Not Compromised ([2]; 6%): 2%
Type I ([2]; 6%): 2%
Type III ([2]; 6%): 1%
Type II ([2]; 6%): 3%
Type IV ([2]; 6%): 93%
Acrosome Compromised ([2]; 10%): 67%
Acrosome Not Compromised ([2]; 10%): 33%
Type I ([2]; 10%): 33%
Type III ([2]; 10%): 2%
Type II ([2]; 10%): 26%
Type IV ([2]; 10%): 38%
% Death ([3]; 4%, 5 min): 100%
% Death ([3]; 5%, 5 min): 96%
% Death ([3]; 6%, 5 min): 100%
% Death ([3]; 7%, 5 min): 98%
% Death ([3]; 8%, 5 min): 99%
% Death ([3]; 9%, 5 min): 100%
% Death ([3]; 10%, 5 min): 100%
% Death ([3]; 10%, 10 min): 100%
% Death ([3]; 12%, 5 min): 96%
% Death ([3]; 15%, 5 min): 94%
% Death ([3]; 15%, 10 min): 100%
inhibition of Candida relative to F7-TEG (Candida albicans): somewhat less inhibitory

nonoxynol-9 [N-9, reference compound]
% Motility ([1]; 0.001%, 5 min, whole semen): 43%
% Motility ([1]; 0.005%, 5 min, whole semen): 60%
% Motility ([1]; 0.01%, 5 min, whole semen): <1%
% Motility ([1]; 0.1%, 5 min, whole semen): 0%
morphological changes of HeLa cells (HeLa cells): significant morphological changes
% Death ([3]; 0.001%, 5 min, PI staining): 38%
killing of sperm cells ([3]; 1.76 mM, 5 min): kill essentially all sperm cells
% Death ([3]; 0.005%, 5 min, PI staining): 60%
% Death ([3]; 0.01%, 5 min, PI staining): 67%
% Death ([3]; 0.1%, 5 min, PI staining): 94%

OCCOCCOCCOCC(F)(F)C(F)(F)C(F)(F)F [F7-TEG, F7-triethylene glycol]
inhibition to growth of E. coli relative to non-fluorous homologs (Escherichia coli): greater inhibition
growth of E. coli (Escherichia coli; final concentrations of 1% or greater, 3 hours or longer): unable to grow
% Motility ([1]; 5%, 5 min): 0%
% Motility ([1]; 6%, 5 min): 0%
% Motility ([1]; 7%, 5 min): 0%
% Motility ([1]; 8%, 5 min): 0%
% Motility ([1]; 9%, 5 min): 0%
% Motility ([1]; 10%, 5 min): 1%
% Motility ([1]; 12%, 5 min): 0%
% Motility ([1]; 15%, 5 min): 0%
% Motility ([1]; 15%, 10 min): 0%
Acrosome Compromised ([2]; 5%): 87%
Acrosome Not Compromised ([2]; 5%): 13%
Type I ([2]; 5%): 13%
Type III ([2]; 5%): <1%
Type II ([2]; 5%): 59%
Type IV ([2]; 5%): 28%
Acrosome Compromised ([2]; 6%): 88%
Acrosome Not Compromised ([2]; 6%): 13%
Type I ([2]; 6%): 13%
Type III ([2]; 6%): 5%
Type II ([2]; 6%): 25%
Type IV ([2]; 6%): 58%
Acrosome Compromised ([2]; 10%): 96%
Acrosome Not Compromised ([2]; 10%): 4%
Type I ([2]; 10%): 4%
Type III ([2]; 10%): 3%
Type II ([2]; 10%): 34%
Type IV ([2]; 10%): 59%
% Death ([3]; 5%, 5 min): 97%
% Death ([3]; 5%, 10 min): 99%
% Death ([3]; 6%, 5 min): 98%
% Death ([3]; 7%, 5 min): 99%
% Death ([3]; 8%, 5 min): 100%
% Death ([3]; 9%, 5 min): 100%
% Death ([3]; 10%, 5 min): 95%
% Death ([3]; 12%, 5 min): 99%
% Death ([3]; 15%, 5 min): 98%
% Death ([3]; 15%, 10 min): 100%
inhibition of Candida (Candida albicans; 5%, exposure 3 hours or longer): substantial inhibition

O=S(=O)([O-])CCCOCC(F)(F)C(F)(F)C(F)(F)F.[Na+] [F7-PS, sodium 3-(2,2,3,3,4,4,4-heptafluoro-butoxy)-propane-1-sulfonate]
inhibition of E. coli (Escherichia coli; 250 mM, compared with F7-TEG/F5-TEG treatments): comparable inhibition
% Motility ([1]; 4%, 5 min): <1%
% Motility ([1]; 5%, 5 min): <1%
% Motility ([1]; 5%, 10 min): 0%
% Motility ([1]; 7%, 5 min): 0%
Acrosome Compromised ([2]; 3%): 36%
Acrosome Not Compromised ([2]; 3%): 64%
Type I ([2]; 3%): 64%
Type III ([2]; 3%): 0%
Type II ([2]; 3%): 13%
Type IV ([2]; 3%): 22%
Acrosome Compromised ([2]; 4%): 100%
Acrosome Not Compromised ([2]; 4%): 0%
Type I ([2]; 4%): 0%
Type III ([2]; 4%): <1%
Type II ([2]; 4%): 4%
Type IV ([2]; 4%): 95%
Acrosome Compromised ([2]; 7%): 41%
Acrosome Not Compromised ([2]; 7%): 59%
Type I ([2]; 7%): 59%
Type III ([2]; 7%): 0%
Type II ([2]; 7%): 40%
Type IV ([2]; 7%): 1%
% Death ([3]; 4%, 5 min): 90%
% Death ([3]; 4%, 10 min): 99%
% Death ([3]; 5%, 5 min): 96%
% Death ([3]; 5%, 10 min): 96%
% Death ([3]; 7%, 5 min): 100%
inhibition of growth of Candida (Candida albicans; exposure in the order of 24 hours): significant inhibition of growth
inhibition of growth of Candida (Candida albicans; exposure limited to 3 or 6 hours): allowed recovery of growth

O=S(=O)([O-])CCCOCC(F)(F)C(F)(F)F.[Na+] [F5-PS]
% Motility ([1]; 6%, 5 min): 1%
% Motility ([1]; 9%, 5 min): 0%
% Motility ([1]; 9%, 10 min): 0%
% Motility ([1]; 12%, 5 min): 0%
% Death ([3]; 6%, 5 min): 91%
% Death ([3]; 6%, 10 min): 99%
% Death ([3]; 9%, 5 min): 98%
% Death ([3]; 9%, 10 min): 96%
% Death ([3]; 12%, 5 min): 99%
